# Reference: PMC10102062, “Effects of DPTQ, a novel positive allosteric modulator of the dopamine D1 receptor, on spontaneous eye blink rate and spatial working memory in the nonhuman primate” (Psychopharmacology, 2023)
# System: rhesus monkeys
# Experiment: Spontaneous eye blink rate, cumulative dosing
# Format: in vivo, rhesus monkey
# From the text: Eleven 5–6-year-old, male rhesus monkeys (Chengdu Ping, An Animal Breeding and Research Base, Sichuan Province, China) with an average weight of 4.83 kg were included in the study. The animals were randomly divided into three groups, DPTQ higher cumulative dose group (n = 4); DPTQ lower cumulative dose group (n = 3); and vehicle (20% Captisol (CyDex Pharmaceuticals, Inc., KS) in NaPO4 buffer) group (n = 4). The D1 agonist SKF82958 was included as a positive control; the results for this compound (not shown here) were recently published together with data for a different D1PAM (DETQ, see Bruns et al. [2018]). The D1 selective antagonist SCH39166 hydrobromide (Cat No.: 2299, Batch No.: 3A/129719) was purchased from Tocris, MN, and was prepared in Millipore pure water with the injection volume 0.2 ml/kg. The D1 antagonist was dosed 15 min before vehicle or DPTQ (n = 4 animals per group).
# Spontaneous eye blinking rate was measured during observational experiments conducted in a specially constructed monkey chair (Mason et al. [2019]). A U-shaped neck plate that helped to fixate the orientation of the head was used to facilitate observation of eye blink rate response. A compact video camera (Panasonic/wv-cp480/CH) on a tripod was positioned in front of the seated monkey. Two camera images were combined by video collector (Color QUAD system) and transferred to the EthoVision software (Noldus, Leesburg, VA) on the computer for on-line viewing and recording.
# Two weeks before testing, monkeys were trained daily to sit in the monkey chair for two 2-h periods with food reward. During post-training test sessions conducted between 9:00 am and 4:30 pm every day, each monkey was studied for nine consecutive 15-min components. Each 15-min block consisted of a 10-min habituation period followed by a 5-min period during which eye blinking was counted. […] Observers blind to the treatment conditions later scored each 5-min videotaped session. An eye blink was defined as a visible, rapid opening and closing of the eyelid. Two observers independently confirmed the measurement with reliability > 90%.
# The effects of different D1 ligands on spontaneous eye blink rate were studied by a cumulative dosing procedure (Jutikiewicz and Bergman 2004). Active compound or vehicle (Captisol 20% w/v NaPO4 buffer) was administered after obtaining two baseline eye blink recordings. The ligand was given in random order to different monkeys of each group as described above. To study dose response and time course, incremental doses of DPTQ were administrated at the end of 15-min components of each test session.
# DPTQ (free base, see Hao et al. [2019]) was supplied by Eli Lilly Company. Captisol (Lot No.: NC-04A-05034) was prepared as follows: Captisol 20% w/v NaPO4 buffer 25 mM, pH 8. The injection volume for DPTQ was 0.5 ml/kg IM. DPTQ at 0.1 mg/kg, 0.5 mg/kg, and 1 mg/kg were dosed as clear solution, while the 5 mg/kg and 10 mg/kg doses were formulated as fine suspensions. The above vehicle solution was stored at 4℃ in a refrigerator and restored to room temperature before use. When preparing DPTQ fresh daily, a portion of the vehicle (20% Captisol) was added to the compound and stirred to wet, followed by addition of the remainder of the vehicle and mixing until the solution became homogeneous. The suspension was then sonicated on an ice bath for 40 min to reduce particle size. Animals were dosed while in the chair.
# Results for each monkey were expressed as the rate of eye blinking (blinks per minute) averaged over each 5-min testing epoch. The effects of vehicle and D1 PAM on eye blinking were averaged for each group of monkeys and expressed as mean ± SE. The effects of DPTQ and vehicle were analyzed with two-way ANOVA (D1 PAM and time) followed by Bonferroni post hoc test (GraphPad Prism, San Diego CA).
structure (smiles),measurement,setting,value
C[C@H]1c2cccc(CC(C)(C)O)c2C[C@H](CO)N1C(=O)Cc1c(Cl)cccc1Cl [DPTQ],Increase in eye blink rate after SCH39166 pretreatment,"DPTQ 0.5, 5, 10 mg/kg cumulative, SCH39166 0.03 mg/kg IM 15 min before","small, non-significant"
same,Oral movement,"both high and lower cumulative doses, clear effect only at higher dose at 30 min",some degree of oral movement such as tongue protrusion
same,Spontaneous eye blink rate vs vehicle,"higher cumulative dose 0.5, 5 and 10 mg/kg IM, at 30, 45, 60 and 75 min",significant increases
same,Spontaneous eye blink rate vs vehicle,"lower cumulative dose 0.1, 1 and 5 mg/kg IM, only at 45 and 60 min",small but significant
